From US6914045B2, “Glycopeptide antibiotics” (Wyeth Holdings Corporation, priority 2001, dated 2005)
Converted amounts (≈) assume the structure as drawn.

Columns and labels:
Experiment in all cases: in vitro antibacterial evaluation, MIC by broth dilution
Type in all cases: cell-based
Escherichia coli = conditions: 18 hours at 35° C.
Enterococcus sp. = conditions: broth dilution, 18 hours at 35° C.
Summary of the method: (§1)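 Following National Committee for Clinical Laboratory Standards recommendations (M7-A2), susceptibility was measured by dilution in Muller-Hinton II […]. Bacteria were seeded at 5×10^5 CFU/mL against compound concentrations from 64 down to 0.06 μg/mL.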

Streptococcus sp. = conditions: broth dilution, 18 hours at 35° C.
Summary of the method: as §1

Staphylococcus sp. = conditions: broth dilution, 18 hours at 35° C.
Summary of the method: as §1

COc1ccc(COCC2OC(OC3C(CO)OC(Oc4ccc(CC5NC(=O)C(C(C)c6ccccc6)NC(=O)CNC(=O)C(CO)NC(=O)C(C(O)C6CNC(=N)N6C6OC(CO)C(O)C(O)C6O)NC(=O)C(C(O)C6CNC(=N)N6)NC5=O)cc4)C(O)C3O)C(O)C(O)C2O)cc1OCc1ccccc1 (stereo not shown) [Example 239]
MIC Escherichia coli (ATCC 25922) (Escherichia coli): >64 µg/mL | MIC Escherichia coli (GC 4559) (Escherichia coli): >64 µg/mL | MIC Escherichia coli (GC 4560) (Escherichia coli): 1 µg/mL (≈ 0.657 µM) | MIC Enterococcus avium (GC 4558) (Enterococcus sp.): 4 µg/mL (≈ 2.63 µM) | MIC Enterococcus faecalis (ATCC 29212) (Enterococcus sp.): 4 µg/mL (≈ 2.63 µM) | MIC Enterococcus faecalis (GC 2242) (Enterococcus sp.): 4 µg/mL (≈ 2.63 µM) | MIC Enterococcus faecalis (GC 2691) (Enterococcus sp.): 4 µg/mL (≈ 2.63 µM) | MIC Enterococcus faecalis (GC 3059) (Enterococcus sp.): 4 µg/mL (≈ 2.63 µM) | MIC Enterococcus faecalis (GC 4552) (Enterococcus sp.): 4 µg/mL (≈ 2.63 µM) | MIC Enterococcus faecalis (GC 4553) (Enterococcus sp.): 4 µg/mL (≈ 2.63 µM) | MIC Enterococcus faecalis (GC 4554) (Enterococcus sp.): 4 µg/mL (≈ 2.63 µM) | MIC Enterococcus faecalis (GC 6189) (Enterococcus sp.): 4 µg/mL (≈ 2.63 µM) | MIC Enterococcus faecium (GC 2243) (Enterococcus sp.): 4 µg/mL (≈ 2.63 µM) | MIC Enterococcus faecium (GC 4556) (Enterococcus sp.): 4 µg/mL (≈ 2.63 µM) | MIC Enterococcus faecium (GC 4557) (Enterococcus sp.): 2 µg/mL (≈ 1.31 µM) | MIC Enterococcus faecalis (ATCC 29212) (Enterococcus sp.; strain ATCC 29212): 4 µg/mL (≈ 2.63 µM) | MIC Enterococcus faecium (GC 2243) (Enterococcus sp.; strain GC 2243): 4 µg/mL (≈ 2.63 µM) | MIC Enterococcus faecalis (GC 4552) (Enterococcus sp.; strain GC 4552): 4 µg/mL (≈ 2.63 µM) | MIC Enterococcus faecalis (GC 4553) (Enterococcus sp.; strain GC 4553): 4 µg/mL (≈ 2.63 µM) | MIC Enterococcus faecalis (GC 4554) (Enterococcus sp.; strain GC 4554): 4 µg/mL (≈ 2.63 µM) | MIC Enterococcus faecium (GC 4556) (Enterococcus sp.; strain GC 4556): 4 µg/mL (≈ 2.63 µM) | MIC Enterococcus faecium (GC 4557) (Enterococcus sp.; strain GC 4557): 2 µg/mL (≈ 1.31 µM) | MIC Enterococcus avium (GC 4558) (Enterococcus sp.; strain GC 4558): 4 µg/mL (≈ 2.63 µM) | MIC Enterococcus faecalis (GC 6189) (Enterococcus sp.; strain GC 6189): 4 µg/mL (≈ 2.63 µM) | MIC Enterococcus faecalis (GC 2242) (Enterococcus sp.; inoculum 5×10^5 CFU/mL, strain GC 2242): 4 µg/mL (≈ 2.63 µM) | MIC Enterococcus faecalis (GC 2691) (Enterococcus sp.; inoculum 5×10^5 CFU/mL, strain GC 2691): 4 µg/mL (≈ 2.63 µM) | MIC Enterococcus faecalis (GC 3059) (Enterococcus sp.; inoculum 5×10^5 CFU/mL, strain GC 3059): 4 µg/mL (≈ 2.63 µM) | MIC Streptococcus agalactiae (GC 4564) (Streptococcus sp.): 0.25 µg/mL (≈ 0.164 µM) | MIC Streptococcus pneumoniae (ATCC 6301) (Streptococcus sp.): <0.06 µg/mL | MIC Streptococcus pneumoniae (GC 1894) (Streptococcus sp.): <0.06 µg/mL | MIC Streptococcus pneumoniae (GC 4565) (Streptococcus sp.): <0.06 µg/mL | MIC Streptococcus pyogenes (GC 4563) (Streptococcus sp.): 0.25 µg/mL (≈ 0.164 µM) | MIC Streptococcus pneumoniae (ATCC 6301) (Streptococcus sp.; inoculum 5×10^5 CFU/mL, strain ATCC 6301): <0.06 µg/mL | MIC Streptococcus pneumoniae (GC 1894) (Streptococcus sp.; inoculum 5×10^5 CFU/mL, strain GC 1894): <0.06 µg/mL | MIC Streptococcus pyogenes (GC 4563) (Streptococcus sp.; inoculum 5×10^5 CFU/mL, strain GC 4563): 0.25 µg/mL (≈ 0.164 µM) | MIC Streptococcus agalactiae (GC 4564) (Streptococcus sp.; inoculum 5×10^5 CFU/mL, strain GC 4564): 0.25 µg/mL (≈ 0.164 µM) | MIC Streptococcus pneumoniae (GC 4565) (Streptococcus sp.; inoculum 5×10^5 CFU/mL, strain GC 4565): <0.06 µg/mL | MIC Coagulase Negative Staphylococcus (GC 4547) (Staphylococcus sp.): 2 µg/mL (≈ 1.31 µM) | MIC Coagulase Negative Staphylococcus (GC 4548) (Staphylococcus sp.): 1 µg/mL (≈ 0.657 µM) | MIC Coagulase Negative Staphylococcus (GC 4549) (Staphylococcus sp.): 1 µg/mL (≈ 0.657 µM) | MIC Coagulase Negative Staphylococcus (GC 4551) (Staphylococcus sp.): 2 µg/mL (≈ 1.31 µM) | MIC Coagulase Negative Staphylococcus (GC 6257) (Staphylococcus sp.): 1 µg/mL (≈ 0.657 µM) | MIC Staphylococcus aureus (ATCC 29213) (Staphylococcus sp.): 2 µg/mL (≈ 1.31 µM) | MIC Staphylococcus aureus (GC 1131) (Staphylococcus sp.): 2 µg/mL (≈ 1.31 µM) | MIC Staphylococcus aureus (GC 3051) (Staphylococcus sp.): 1 µg/mL (≈ 0.657 µM) | MIC Staphylococcus aureus (GC 3053) (Staphylococcus sp.): 2 µg/mL (≈ 1.31 µM) | MIC Staphylococcus aureus (GC 4541) (Staphylococcus sp.): 4 µg/mL (≈ 2.63 µM) | MIC Staphylococcus aureus (GC 4542) (Staphylococcus sp.): 2 µg/mL (≈ 1.31 µM) | MIC Staphylococcus aureus (GC 4544) (Staphylococcus sp.): 2 µg/mL (≈ 1.31 µM) | MIC Staphylococcus aureus (GC 4545) (Staphylococcus sp.): 2 µg/mL (≈ 1.31 µM) | MIC Staphylococcus aureus-SMITH (GC 4543) (Staphylococcus sp.): 2 µg/mL (≈ 1.31 µM) | MIC Staphylococcus haemolyticus (GC 4546) (Staphylococcus sp.): 1 µg/mL (≈ 0.657 µM) | MIC Staphylococcus aureus (ATCC 29213) (Staphylococcus sp.; strain ATCC 29213): 2 µg/mL (≈ 1.31 µM) | MIC Staphylococcus aureus (GC 1131) (Staphylococcus sp.; strain GC 1131): 2 µg/mL (≈ 1.31 µM) | MIC Staphylococcus aureus (GC 3051) (Staphylococcus sp.; strain GC 3051): 1 µg/mL (≈ 0.657 µM) | MIC Staphylococcus aureus (GC 3053) (Staphylococcus sp.; strain GC 3053): 2 µg/mL (≈ 1.31 µM) | MIC Staphylococcus aureus (GC 4541) (Staphylococcus sp.; strain GC 4541): 4 µg/mL (≈ 2.63 µM) | MIC Staphylococcus aureus (GC 4542) (Staphylococcus sp.; strain GC 4542): 2 µg/mL (≈ 1.31 µM) | MIC Staphylococcus aureus-SMITH (GC 4543) (Staphylococcus sp.; strain GC 4543): 2 µg/mL (≈ 1.31 µM) | MIC Staphylococcus aureus (GC 4544) (Staphylococcus sp.; strain GC 4544): 2 µg/mL (≈ 1.31 µM) | MIC Staphylococcus aureus (GC 4545) (Staphylococcus sp.; strain GC 4545): 2 µg/mL (≈ 1.31 µM) | MIC Staphylococcus haemolyticus (GC 4546) (Staphylococcus sp.; strain GC 4546): 1 µg/mL (≈ 0.657 µM) | MIC Coagulase Negative Staphylococcus (GC 4547) (Staphylococcus sp.; strain GC 4547): 2 µg/mL (≈ 1.31 µM) | MIC Coagulase Negative Staphylococcus (GC 4548) (Staphylococcus sp.; strain GC 4548): 1 µg/mL (≈ 0.657 µM) | MIC Coagulase Negative Staphylococcus (GC 4549) (Staphylococcus sp.; strain GC 4549): 1 µg/mL (≈ 0.657 µM) | MIC Coagulase Negative Staphylococcus (GC 4551) (Staphylococcus sp.; strain GC 4551): 2 µg/mL (≈ 1.31 µM) | MIC Coagulase Negative Staphylococcus (GC 6257) (Staphylococcus sp.; strain GC 6257): 1 µg/mL (≈ 0.657 µM)
